The record followed here is ChEMBL document CHEMBL5126500, “Small-molecule inhibitors of breast cancer-related targets: Potential therapeutic agents for breast cancer” (Eur J Med Chem, 2021).

One experiment has as its system MX1. The experiment is described as follows: Cytotoxicity against human MX1 cells assessed as cell survival incubated for 72 hrs by MTT assay. It counts as functional, cell-based. The note with it: MX1, 72 h. On the technique in general: Tetrazolium dyes change colour on reduction, which living cells bring about.
The target of another experiment is CDK6/cyclin D3 (Homo sapiens, UniProt Q00534). The experiment is described as follows: Binding affinity to CDK6/Cyclin D3 (unknown origin) assessed as inhibition constant by radiometric assay. Type of experiment: protein-complex assay.
Experiment [1] concerns the target T1, Bromodomain-containing protein 4 (Homo sapiens, UniProt O60885). Briefly: Inhibition of BRD4 BD2 (unknown origin).
For experiment [2], the target named is T1, Bromodomain-containing protein 4. Briefly: Inhibition of BRD4 BD1 (unknown origin).
Experiment [3] has as its target T2, Poly [ADP-ribose] polymerase 1 (Homo sapiens, UniProt P09874). Briefly: Inhibition of PARP1 (unknown origin) incubated for 1 hr by colorimetry.
Experiment [4] deals with Serine/threonine-protein kinase PLK1 (Homo sapiens, UniProt P53350). Briefly: Inhibition of PLK1-PBD (unknown origin) using FITC-GPMQSpTPLNG-OH as substrate incubated for 30 mins by fluorescence polarization assay.
Another experiment deals with T3, Histone deacetylase 8 (Homo sapiens, UniProt Q9BY41).
T3 sequence (Q9BY41 whole entry): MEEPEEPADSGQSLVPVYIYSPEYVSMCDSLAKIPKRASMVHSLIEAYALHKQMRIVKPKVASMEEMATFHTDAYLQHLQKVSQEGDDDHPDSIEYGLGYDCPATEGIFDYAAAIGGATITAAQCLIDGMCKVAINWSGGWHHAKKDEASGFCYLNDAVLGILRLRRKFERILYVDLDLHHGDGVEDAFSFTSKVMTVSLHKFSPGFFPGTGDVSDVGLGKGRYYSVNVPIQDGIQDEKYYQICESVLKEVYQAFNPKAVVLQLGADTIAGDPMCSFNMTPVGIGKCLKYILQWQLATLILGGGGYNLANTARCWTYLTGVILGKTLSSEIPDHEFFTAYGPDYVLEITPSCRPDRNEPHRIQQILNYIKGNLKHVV
Briefly: Inhibition of human recombinant HDAC8 using BML-KI178-0005 as substrate incubated for 10 mins by fluorescence based assay.

A further experiment deals with MDA-MB-436. The experiment is described as follows: Antiproliferative activity against BRCA1 deficient human MDA-MB-436 cells assessed as reduction in cell viability incubated for 96 hrs by MTT assay. It counts as functional, cell-based. As to conditions: MDA-MB-436, 96 h.
Experiment [5] addresses T2, Poly [ADP-ribose] polymerase 1. Briefly: Inhibition of PARP1 (unknown origin) using NAD+ as substrate incubated for 30 mins by fluorescence based assay.

Where only a bound is given, the exact number is not on record here.

In general, IC50 refers to the concentration that gives 50% inhibition. As usually defined, the Ki is a dissociation constant, usually derived from enzyme kinetics or from competition with a known ligand.

T2 sequence (P09874 whole entry): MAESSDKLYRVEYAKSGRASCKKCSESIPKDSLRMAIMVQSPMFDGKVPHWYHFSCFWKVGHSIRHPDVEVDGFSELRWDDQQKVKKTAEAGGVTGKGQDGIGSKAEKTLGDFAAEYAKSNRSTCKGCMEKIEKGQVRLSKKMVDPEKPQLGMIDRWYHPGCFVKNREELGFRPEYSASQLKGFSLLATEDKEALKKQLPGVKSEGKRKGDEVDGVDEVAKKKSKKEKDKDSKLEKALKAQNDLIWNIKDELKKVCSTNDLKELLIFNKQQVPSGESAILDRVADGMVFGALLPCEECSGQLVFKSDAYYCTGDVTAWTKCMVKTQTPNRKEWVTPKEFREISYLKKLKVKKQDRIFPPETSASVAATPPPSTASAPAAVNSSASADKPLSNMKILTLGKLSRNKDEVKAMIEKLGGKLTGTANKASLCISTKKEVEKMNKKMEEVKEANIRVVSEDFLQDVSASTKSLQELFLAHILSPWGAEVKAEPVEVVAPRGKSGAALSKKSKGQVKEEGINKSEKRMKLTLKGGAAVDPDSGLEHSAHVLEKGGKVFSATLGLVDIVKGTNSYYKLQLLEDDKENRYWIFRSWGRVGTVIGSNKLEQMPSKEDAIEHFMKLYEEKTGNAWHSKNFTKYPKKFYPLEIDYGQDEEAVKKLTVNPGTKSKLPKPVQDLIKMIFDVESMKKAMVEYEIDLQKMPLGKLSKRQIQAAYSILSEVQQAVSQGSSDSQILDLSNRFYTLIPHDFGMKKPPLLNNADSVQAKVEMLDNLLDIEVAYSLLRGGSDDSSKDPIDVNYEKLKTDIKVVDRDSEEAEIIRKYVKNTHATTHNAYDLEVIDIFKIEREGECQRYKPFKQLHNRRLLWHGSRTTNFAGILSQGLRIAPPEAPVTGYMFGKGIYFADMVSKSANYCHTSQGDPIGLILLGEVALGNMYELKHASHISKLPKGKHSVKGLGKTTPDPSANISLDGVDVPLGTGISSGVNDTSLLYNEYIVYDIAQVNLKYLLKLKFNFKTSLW
Sequence of CDK6/cyclin D3 (P30281 whole entry): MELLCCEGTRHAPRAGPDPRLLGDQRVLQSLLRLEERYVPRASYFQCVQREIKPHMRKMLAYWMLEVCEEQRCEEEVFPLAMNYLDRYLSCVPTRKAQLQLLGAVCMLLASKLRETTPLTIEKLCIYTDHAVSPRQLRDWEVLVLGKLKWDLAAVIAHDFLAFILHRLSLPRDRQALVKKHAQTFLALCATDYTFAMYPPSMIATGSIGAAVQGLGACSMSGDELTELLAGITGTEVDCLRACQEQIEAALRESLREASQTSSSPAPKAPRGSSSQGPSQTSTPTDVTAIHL
Sequence of CDK6/cyclin D3 (Q00534 whole entry): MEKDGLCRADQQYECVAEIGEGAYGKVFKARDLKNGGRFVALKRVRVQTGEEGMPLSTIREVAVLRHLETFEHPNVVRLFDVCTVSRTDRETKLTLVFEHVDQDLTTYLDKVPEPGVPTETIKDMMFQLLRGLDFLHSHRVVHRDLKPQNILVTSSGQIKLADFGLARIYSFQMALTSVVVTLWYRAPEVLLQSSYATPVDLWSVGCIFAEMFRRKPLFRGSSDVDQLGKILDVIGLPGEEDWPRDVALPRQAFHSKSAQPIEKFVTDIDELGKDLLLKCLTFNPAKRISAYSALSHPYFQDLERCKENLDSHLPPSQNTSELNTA
Sequence of Serine/threonine-protein kinase PLK1 (P53350 whole entry): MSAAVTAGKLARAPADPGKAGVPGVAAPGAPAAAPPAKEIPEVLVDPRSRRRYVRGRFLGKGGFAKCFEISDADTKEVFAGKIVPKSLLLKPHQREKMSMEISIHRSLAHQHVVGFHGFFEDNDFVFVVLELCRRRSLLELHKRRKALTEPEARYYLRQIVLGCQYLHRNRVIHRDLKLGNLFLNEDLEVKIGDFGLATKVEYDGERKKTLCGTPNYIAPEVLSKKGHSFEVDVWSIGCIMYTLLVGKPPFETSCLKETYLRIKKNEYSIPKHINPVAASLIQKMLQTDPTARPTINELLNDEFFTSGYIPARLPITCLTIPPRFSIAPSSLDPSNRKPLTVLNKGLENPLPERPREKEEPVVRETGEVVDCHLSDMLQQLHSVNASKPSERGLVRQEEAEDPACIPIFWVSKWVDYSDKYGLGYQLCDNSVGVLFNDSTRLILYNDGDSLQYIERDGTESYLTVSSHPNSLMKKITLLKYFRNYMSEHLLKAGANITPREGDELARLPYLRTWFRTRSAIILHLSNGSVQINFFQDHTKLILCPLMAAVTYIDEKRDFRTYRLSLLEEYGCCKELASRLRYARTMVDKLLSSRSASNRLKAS

As for `CC(C)N1CCC(NC(=O)c2cc(Cn3c(=O)[nH]c(=O)c4ccccc43)ccc2F)C1` (centres undefined), the IC50 in the experiment with MX1 was under 3120 nM.

Consider `CC(=O)N1N=C(c2c(O)c3ccccc3oc2=O)CC1c1ccccc1Cl` (centres undefined), for which the Ki at CDK6/cyclin D3 was 13.4 nM.

In the case of `C#CCSc1nc2nc(C)cc(Nc3cc(-c4ccccc4)[nH]n3)n2n1`, the figures for the IC50 in experiment [1] and in [2] were 4360 nM and 2150 nM, respectively.

In [3], `O=C(c1ccc(Cc2n[nH]c(=O)c3cccnc23)cc1)n1cccc1` had an IC50 of 36 nM.

For the compound `O=C(CCNC(=O)c1ccc(CO)cc1)N[C@@H](Cc1cnnn1CCc1ccccc1)C(=O)NCc1cn(CCP(=O)(O)O)nn1`, in experiment [4], the half-inhibitory concentration (IC50) was found to be 3370 nM.

For the compound `O=C(CCN1CCN(C(=O)Nc2ccnc3ccccc23)CC1)NO`, the IC50 on Histone deacetylase 8 was determined as 1740 nM.

For the compound `CC(c1nc2c(C(N)=O)cccc2[nH]1)N1CC(=O)N(c2ccc(C(F)(F)F)cc2)C1=S` (centres undefined), the IC50 is 1000 nM in the experiment with MDA-MB-436 and 25 nM in experiment [5].
